Earlier results as cited in patent US10912741B2, “Prevention of liver cancer with safranal-based formulations” (United Arab Emirates University, priority 2019, dated 2021).

Test system: HeLa cells
Conditions: reported in the background; cited from earlier work

CC1=C(C=O)C(C)(C)C[C@H](O[C@@H]2O[C@H](CO)[C@@H](O)[C@H](O)[C@H]2O)C1 [picrocrocin]
growth of HeLa cells: inhibit the growth of HeLa cells

CC(/C=C/C=C(\C)C(=O)O[C@@H]1O[C@H](CO[C@@H]2O[C@H](CO)[C@@H](O)[C@H](O)[C@H]2O)[C@@H](O)[C@H](O)[C@H]1O)=C\C=C\C=C(C)\C=C\C=C(/C)C(=O)O[C@@H]1O[C@H](CO[C@@H]2O[C@H](CO)[C@@H](O)[C@H](O)[C@H]2O)[C@@H](O)[C@H](O)[C@H]1O [crocin]
growth of HeLa cells: inhibit the growth of HeLa cells
